Results on three compounds are retold here after US11000033B2, “Ketone or oxime compound, and herbicide” (NISSAN CHEMICAL CORPORATION, priority 2014, dated 2021).

Common to all, as to type: in vivo
Data set [1] concerns Setaria viridis. Kind of data set: Test Example 4: herbicidal effect by soil treatment (symbol G). The method, boiled down:
(§1)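 Seeds were sown in sterilized diluvial soil, covered with about 1.5 cm of soil, and the soil surface was sprayed with a water-diluted emulsion of the compound at a predetermined rate. Plants grew in a greenhouse at 25° C. to 30° C.; effects were scored visually 3 weeks after application.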

Data set [2] deals with Monochoria vaginalis. The data set can be described thus: Test Example 1: herbicidal activity, application before weed generation in submerged conditions (symbol C). Particulars: application herbicide amount 320 g/ha. The method, boiled down: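 Weeds are sown into submerged alluvial soil alongside transplanted 2.5-leaf rice, and the compound, as an emulsion diluted to a set rate, is applied onto the water before emergence. Rating on the 0–5 herbicidal-ratio scale follows 3 weeks of greenhouse growth at 25–30 °C.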

Data set [3] relates to rapeseed. Kind of data set: Test Example 5: effect on crop by foliage application, plastic box (symbol g). Particulars: 320 g/ha, 3 weeks after application. In a few lines: (§2)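 A greenhouse held between 25° C. and 30° C. was used to grow plants sown spot-wise, beneath ~1.5 cm of soil, in boxes of sterilized diluvial soil.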
For data set [4], the system named is Apera spica-venti. The data set can be described thus: Test Example 5: herbicidal effect by foliage application, plastic box (symbol L). Particulars: 320 g/ha, 3 weeks after application. The method, boiled down:
(§3)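 Sowing in sterilized diluvial soil, 14 days' greenhouse growth at 25° C. to 30° C., then uniform small-sprayer foliar application of aqueous emulsion dilution; plants scored three weeks afterwards.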

Data set [5] has as its system Avena fatua. The data set can be described thus: Test Example 4: herbicidal effect by soil treatment (symbol I). The method, boiled down: as §1
Data set [6] concerns corn. Kind of data set: Test Example 5: effect on crop by foliage application, plastic box (symbol c). Particulars: 320 g/ha, 3 weeks after application. The method, boiled down: as §2
Data set [7] relates to directly sowed rice plant. Kind of data set: Test Example 3: effect on crop by foliage application, Wagner pot (symbol b). The conditions noted are these: application herbicide amount 320 g/ha. In a few lines:
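Steps: fill a 1/10000-are Wagner pot with alluvial soil; add water and mix to submerge at 0.1–0.5 cm depth; sow rice plus Echinochloa crus-galli var. crus-galli, Leptochloa chinensis and Cyperus difformis; grow in a 25–30 °C greenhouse.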

The test system of data set [8] is soybean. Kind of data set: Test Example 5: effect on crop by foliage application, plastic box (symbol d). Particulars: 320 g/ha, 3 weeks after application. In a few lines: as §2
Data set [9] has as its system beet. Kind of data set: Test Example 4: effect on crop by soil treatment (symbol f). Particulars: for f: beet, effect on crop grade: application herbicide amount 320 g/ha. In a few lines: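 Greenhouse culture at 25° C. to 30° C. followed sowing of seed in spots on sterilized diluvial soil with a soil cover close to 1.5 cm thick.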
In data set [10] the test system is Monochoria vaginalis. Kind of data set: Test Example 2: herbicidal activity, application during weed generation in submerged conditions (symbol C). The conditions noted are these: Table 23; application herbicide amount 320 g/ha; grade 0-5 by criteria of Test Example 1. The method, boiled down:
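Each pot contained alluvial soil under 4 cm of water with seeds of all three weeds sown together. Following growth at 25° C. to 30° C. to the one- to two-leaf stage, the floodwater received diluted emulsion at a predetermined amount; visual assessment followed at 3 weeks.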

Data set [11] has as its system Abutilon theophrasti. Kind of data set: Test Example 5: herbicidal effect by foliage application, plastic box (symbol M). Particulars: 320 g/ha, 3 weeks after application. In a few lines: as §3
Data set [12] concerns Veronica persica. Kind of data set: Test Example 4: herbicidal effect by soil treatment (symbol R). The method, boiled down:
as §1

The test system of data set [13] is Echinochloa crus-galli var. crus-galli. The data set can be described thus: Test Example 5: herbicidal effect by foliage application, plastic box (symbol H). The conditions noted are these: 320 g/ha, 3 weeks after application. The method, boiled down: as §3
[14] abbreviates: application herbicide amount 320 g/ha.

As to `CCc1cc(C#C[Si](C)(C)C)cc(C)c1C1=C(O)CC(CC(C)=NOC)C1=O` (mixture of isomers) [6-008], the “G: Setaria viridis, herbicidal effect grade” value (“G: Setaria viridis” below) in data set [1] (setting [14]) is recorded as 5 (Herbicidal ratio of 90% or more (almost completely withered)). Besides, the “Herbicidal effect grade, C: Monochoria vaginalis” value (“Herbicidal effect grade, C” below) in [2] and in data set [10] was 5 (Herbicidal ratio of 90% or more (almost completely withered)) throughout. Moreover, the “g: rapeseed, effect on crop grade” value in data set [3] is given as 0 (Herbicidal ratio of 5% or lower (almost no effect)). Also, the “L: Apera spica-venti, herbicidal effect grade” value in data set [4] is 3 (Herbicidal ratio of 40% or higher and lower than 70%). The “I: Avena fatua, herbicidal effect grade” value in data set [5] (setting [14]) is 4 (Herbicidal ratio of 70% or higher and lower than 90%). Further, the “c: corn, effect on crop grade” value in [6] is 3 (Herbicidal ratio of 40% or higher and lower than 70%). Moreover, the “effect on crop b (directly sowed rice plant), grade 0-5” value (from here on “effect on crop b”) in [7] is on record as 5 (Herbicidal ratio of 90% or more (almost completely withered)). Moreover, the “d: soybean, effect on crop grade” value in [8] was 1 (Herbicidal ratio of 5% or higher and lower than 20%). Moreover, the “f: beet, effect on crop grade” value in data set [9] is 0 (Herbicidal ratio of 5% or lower (almost no effect)). Also, the “M: Abutilon theophrasti, herbicidal effect grade” value in [11] is on record as 0 (Herbicidal ratio of 5% or lower (almost no effect)). The “R: Veronica persica, herbicidal effect grade” value (shortened to “R: Veronica persica”) in data set [12] (setting [14]) was 0 (Herbicidal ratio of 5% or lower (almost no effect)). In addition, the “H: Echinochloa crus-galli var. crus-galli, herbicidal effect grade” value in [13] was 5 (Herbicidal ratio of 90% or more (almost completely withered)).

Regarding `CON=C(C)CC1CC(OS(=O)(=O)CCCCl)=C(c2c(C)cc(C)cc2C)C1=O` (stereo not shown) [1-142], the “G: Setaria viridis” value in data set [1] (320 g/ha) is on record as 5 (Herbicidal ratio of 90% or more (almost completely withered)). Moreover, the “Herbicidal effect grade, C” value in data set [2] is 2 (Herbicidal ratio of 20% or higher and lower than 40%). In addition, in data set [3], the “g: rapeseed, effect on crop (criteria 0-5)” value is 4 (Herbicidal ratio of 70% or higher and lower than 90%). Besides, in [4], the “L: Apera spica-venti, herbicidal effect (criteria 0-5)” value is recorded as 5 (Herbicidal ratio of 90% or more (almost completely withered)). Besides, the “I: Avena fatua, herbicidal effect grade” value in data set [5] (320 g/ha) was 3 (Herbicidal ratio of 40% or higher and lower than 70%). The “c: corn, effect on crop (criteria 0-5)” value in [6] is on record as 5 (Herbicidal ratio of 90% or more (almost completely withered)). Further, the “effect on crop b” value in [7] was 5 (Herbicidal ratio of 90% or more (almost completely withered)). The “d: soybean, effect on crop (criteria 0-5)” value in data set [8] is 3 (Herbicidal ratio of 40% or higher and lower than 70%). In data set [9] (320 g/ha), the “f: beet, effect grade on crop” value was 0 (Herbicidal ratio of 5% or lower (almost no effect)). Besides, the “M: Abutilon theophrasti, herbicidal effect (criteria 0-5)” value in [11] is 4 (Herbicidal ratio of 70% or higher and lower than 90%). Also, the “R: Veronica persica” value in data set [12] (320 g/ha) is 0 (Herbicidal ratio of 5% or lower (almost no effect)). The “H: Echinochloa crus-galli var. crus-galli, herbicidal effect (criteria 0-5)” value in data set [13] is reported as 5 (Herbicidal ratio of 90% or more (almost completely withered)).

In the case of `CCC(=O)CCC1CC(OC)=C(c2c(C)cc(C)cc2C)C1=O` (stereo not shown) [5-002], the “G: Setaria viridis” value in data set [1] (setting [14]) is 0 (Herbicidal ratio of 5% or lower (almost no effect)). In addition, the “Herbicidal effect grade, C” value in [2] and in [10] was 0 (Herbicidal ratio of 5% or lower (almost no effect)) throughout. Besides, the “L: Apera spica-venti, herbicidal effect grade” value in data set [4] is 0 (Herbicidal ratio of 5% or lower (almost no effect)). The “I: Avena fatua, herbicidal effect grade” value in [5] (setting [14]) is given as 0 (Herbicidal ratio of 5% or lower (almost no effect)). Further, in data set [6], the “c: corn, effect on crop grade” value is on record as 0 (Herbicidal ratio of 5% or lower (almost no effect)). Also, the “effect on crop b” value in [7] is 0 (Herbicidal ratio of 5% or lower (almost no effect)). Further, the “d: soybean, effect on crop grade” value in [8] is given as 0 (Herbicidal ratio of 5% or lower (almost no effect)). Moreover, in [9], the “f: beet, effect on crop grade” value is recorded as 0 (Herbicidal ratio of 5% or lower (almost no effect)). For the same compound, the “M: Abutilon theophrasti, herbicidal effect grade” value in [11] is 0 (Herbicidal ratio of 5% or lower (almost no effect)). For the same compound, the “R: Veronica persica” value in data set [12] (setting [14]) is given as 0 (Herbicidal ratio of 5% or lower (almost no effect)). For the same compound, the “H: Echinochloa crus-galli var. crus-galli, herbicidal effect grade” value in [13] is 0 (Herbicidal ratio of 5% or lower (almost no effect)).
